Assays:
TK-10 [1] = assay: Cytotoxicity against human TK10 cells assessed as cell growth at 0.1 uM after 48 hrs by sulforhodamine B assay relative to control; type: functional; details: TK-10, 48 h, read-out: Activity
CCRF-CEM = assay: Cytotoxicity against human CCRF-CEM cells assessed as cell growth at 0.01 uM after 48 hrs by sulforhodamine B assay relative to control; type: functional; details: read-out: Activity
OVCAR-4 [2] = assay: Cytotoxicity against human OVCAR4 cells assessed as cell growth at 1 uM after 48 hrs by sulforhodamine B assay relative to control; type: functional; details: OVCAR-4, 48 h, read-out: Activity
IGROV-1 = assay: Cytotoxicity against human IGROV1 cells assessed as cell growth at 1 uM after 48 hrs by sulforhodamine B assay relative to control; type: functional; details: IGROV-1, 48 h, read-out: Activity
UO-31 = assay: Cytotoxicity against human UO31 cells assessed as cell growth at 0.1 uM after 48 hrs by sulforhodamine B assay relative to control; type: functional; details: UO-31, 48 h, read-out: Activity
U-251 = assay: Cytotoxicity against human U251 cells assessed as cell growth at 0.01 uM after 48 hrs by sulforhodamine B assay relative to control; type: functional; details: U-251, 48 h, read-out: Activity
MDA-MB-468 = assay: Cytotoxicity against human MDA-MB-468 cells assessed as cell growth at 10 uM after 48 hrs by sulforhodamine B assay relative to control; type: functional; details: MDA-MB-468, 48 h, read-out: Activity
K562 = assay: Cytotoxicity against human K562 cells assessed as cell growth at 0.01 uM after 48 hrs by sulforhodamine B assay relative to control; type: functional; details: K562, 48 h, read-out: Activity
NCI-H226 [3] = assay: Cytotoxicity against human NCI-H226 cells assessed as cell growth at 1 uM after 48 hrs by sulforhodamine B assay relative to control; type: functional; details: NCI-H226, 48 h, read-out: Activity
OVCAR-3 = assay: Cytotoxicity against human OVCAR3 cells assessed as cell growth at 100 uM after 48 hrs by sulforhodamine B assay relative to control; type: functional; details: OVCAR-3, 48 h, read-out: Activity
MOLT-4 = assay: Cytotoxicity against human MOLT4 cells assessed as cell growth at 0.1 uM after 48 hrs by sulforhodamine B assay relative to control; type: functional; details: MOLT-4, 48 h, read-out: Activity
MDA-MB-231 = assay: Cytotoxicity against human MDA-MB-231 cells assessed as growth inhibition after 48 hrs by MTT assay; type: functional, cell-based; details: MDA-MB-231, 48 h
SF-268 = assay: Cytotoxicity against human SF268 cells assessed as cell growth at 0.01 uM after 48 hrs by sulforhodamine B assay relative to control; type: functional; details: SF-268, 48 h, read-out: Activity
OVCAR-4 [4] = assay: Cytotoxicity against human OVCAR4 cells assessed as cell growth at 10 uM after 48 hrs by sulforhodamine B assay relative to control; type: functional; details: OVCAR-4, 48 h, read-out: Activity
OVCAR-8 [5] = assay: Cytotoxicity against human OVCAR8 cells assessed as cell growth at 0.1 uM after 48 hrs by sulforhodamine B assay relative to control; type: functional; details: OVCAR-8, 48 h, read-out: Activity
SK-MEL-28 = assay: Cytotoxicity against human SK-MEL-28 cells assessed as cell growth at 10 uM after 48 hrs by sulforhodamine B assay relative to control; type: functional; details: SK-MEL-28, 48 h, read-out: Activity
HCT-15 [6] = assay: Cytotoxicity against human HCT15 cells assessed as cell growth at 0.01 uM after 48 hrs by sulforhodamine B assay relative to control; type: functional; details: HCT-15, 48 h, read-out: Activity
SNB-19 = assay: Cytotoxicity against human SNB19 cells assessed as cell growth at 0.1 uM after 48 hrs by sulforhodamine B assay relative to control; type: functional; details: SNB-19, 48 h, read-out: Activity
HL-60(TB) = assay: Cytotoxicity against human HL-60(TB) cells assessed as growth inhibition after 48 hrs by sulforhodamine B assay; type: functional; details: HL-60, 48 h
HCC 2998 = assay: Cytotoxicity against human HCC2998 cells assessed as growth inhibition after 48 hrs by sulforhodamine B assay; type: functional; details: HCC 2998, 48 h
HCT-15 [7] = assay: Cytotoxicity against human HCT15 cells assessed as growth inhibition after 48 hrs by sulforhodamine B assay; type: functional; details: HCT-15, 48 h
MCF7 [8] = assay: Cytotoxicity against human MCF7 cells assessed as growth inhibition after 48 hrs by sulforhodamine B assay; type: functional; details: MCF7, 48 h
OVCAR-8 [9] = assay: Cytotoxicity against human OVCAR8 cells assessed as cell growth at 0.01 uM after 48 hrs by sulforhodamine B assay relative to control; type: functional; details: OVCAR-8, 48 h, read-out: Activity
TK-10 [10] = assay: Cytotoxicity against human TK10 cells assessed as cell growth at 100 uM after 48 hrs by sulforhodamine B assay relative to control; type: functional; details: TK-10, 48 h, read-out: Activity
NCI/ADR-RES = assay: Cytotoxicity against human NCI/ADR-RES cells assessed as cell growth at 100 uM after 48 hrs by sulforhodamine B assay relative to control; type: functional; details: read-out: Activity
HT-29 = assay: Cytotoxicity against human HT-29 cells assessed as growth inhibition after 48 hrs by sulforhodamine B assay; type: functional; details: HT-29, 48 h
MCF7 [11] = assay: Cytotoxicity against human MCF7 cells assessed as cell growth at 0.01 uM after 48 hrs by sulforhodamine B assay relative to control; type: functional; details: MCF7, 48 h, read-out: Activity
SF-539 = assay: Cytotoxicity against human SF539 cells assessed as growth inhibition after 48 hrs by sulforhodamine B assay; type: functional; details: SF-539, 48 h
NCI-H226 [12] = assay: Cytotoxicity against human NCI-H226 cells assessed as cell growth at 10 uM after 48 hrs by sulforhodamine B assay relative to control; type: functional; details: NCI-H226, 48 h, read-out: Activity
A549 = assay: Cytotoxicity against human A549/ATCC cells assessed as growth inhibition after 48 hrs by sulforhodamine B assay; type: functional; details: A549, 48 h
SK-MEL-5 = assay: Cytotoxicity against human SK-MEL-5 cells assessed as cell growth at 1 uM after 48 hrs by sulforhodamine B assay relative to control; type: functional; details: SK-MEL-5, 48 h, read-out: Activity
NCI-H522 = assay: Cytotoxicity against human NCI-H522 cells assessed as cell growth at 100 uM after 48 hrs by sulforhodamine B assay relative to control; type: functional; details: NCI-H522, 48 h, read-out: Activity
OVCAR-8 [13] = assay: Cytotoxicity against human OVCAR8 cells assessed as cell growth at 1 uM after 48 hrs by sulforhodamine B assay relative to control; type: functional; details: OVCAR-8, 48 h, read-out: Activity
UACC-257 = assay: Cytotoxicity against human UACC257 cells assessed as cell growth at 10 uM after 48 hrs by sulforhodamine B assay relative to control; type: functional; details: UACC-257, 48 h, read-out: Activity
UACC-62 = assay: Cytotoxicity against human UACC62 cells assessed as growth inhibition after 48 hrs by sulforhodamine B assay; type: functional; details: UACC-62, 48 h

`COc1cc(-c2cc(/C=C/C(=O)c3ccc4c(c3)OCO4)[nH]n2)cc(OC)c1OC` gave a growth at 0.1 µM (TK-10 [1]) of 87%, a growth at 0.01 µM (CCRF-CEM) of 94% and a growth at 1 µM (OVCAR-4 [2]) of 82%. It also gave a growth at 1 µM (IGROV-1) of 99%, a growth at 0.1 µM (UO-31) of 83% and a growth at 0.01 µM (U-251) of 96%. The growth at 10 µM (MDA-MB-468) was -88%, the growth at 0.01 µM (K562) was 100% and the growth at 1 µM (NCI-H226 [3]) was 89%. It also gave a growth at 100 µM (OVCAR-3) of -38%, a growth at 0.1 µM (MOLT-4) of 103% and an IC50 (MDA-MB-231) of 1.72 µM. The growth at 0.01 µM (SF-268) was 91%, the growth at 10 µM (OVCAR-4 [4]) was 27% and the growth at 0.1 µM (OVCAR-8 [5]) was 99%. It also gave a growth at 10 µM (SK-MEL-28) of -14%, a growth at 0.01 µM (HCT-15 [6]) of 95% and a growth at 0.1 µM (SNB-19) of 88%. The LC50 (HL-60(TB)) was over 100 µM, the TGI (HL-60(TB)) was 6.36 µM and the LC50 (HCC 2998) was 6.43 µM. It also gave a TGI (HCC 2998) of 3.54 µM, an LC50 (HCT-15 [7]) of over 100 µM and a TGI (HCT-15 [7]) of 7.19 µM. For the same compound, the LC50 (MCF7 [8]) was over 100 µM, the growth at 0.01 µM (OVCAR-8 [9]) was 99% and the growth at 100 µM (TK-10 [10]) was -47%. It also gave a growth at 100 µM (NCI/ADR-RES) of 1%, an LC50 (HT-29) of 9.48 µM and a TGI (HT-29) of 4.55 µM. It also gave a growth at 0.01 µM (MCF7 [11]) of 89%, an LC50 (concentration killing 50% of cells) (SF-539) of 25.4 µM and a TGI (SF-539) of 5.73 µM. The growth at 10 µM (NCI-H226 [12]) was 14%, the LC50 (concentration giving 50% net cell kill) (A549) was over 100 µM and the TGI (A549) was over 100 µM. It also gave a growth at 1 µM (SK-MEL-5) of 95%, a growth at 100 µM (NCI-H522) of -97% and a growth at 1 µM (OVCAR-8 [13]) of 91%. For the same compound, the growth at 10 µM (UACC-257) was 2%, the LC50 (UACC-62) was over 100 µM and the TGI (UACC-62) was over 100 µM.

— ChEMBL document CHEMBL4138123, “Design, synthesis and biological evaluation of novel pyrazolochalcones as potential modulators of PI3K/Akt/mTOR pathway and inducers of apoptosis in breast cancer cells” (Eur J Med Chem, 2017)
